The source made the active and inactive calls.
Assays:
[1] = luciferase reporter signal suppression in cells – H4 neuroglioma cells, luminescence, dose response (AID 1990); format: functional, cell-based
HEK293 [2] = assay: inhibition of NOD1-driven NF-kB reporter – cell-based, luminescence, uHTS, primary screen (AID 1578); format: functional; conditions: Homo sapiens
HEK293 [3] = assay: cells; format: functional, cell-based; conditions: Homo sapiens
[4] = Luminescence Cell-Based Dose Response HTS to Identify Inhibitors of 5'UTR Stem-Loop Driven Prion Protein mRNA Translation in H4 Neuroglioblastoma Cells. [Related pubchem assays: 1827 (Project Summary), 1813 (Primary HTS)]; format: functional
[5] = alpha-synuclein stem-loop luciferase translation blockers – H4 neuroglioma cells, luminescence, confirmation (AID 1988); format: functional, cell-based
HEK293 [6] = assay: cells; format: functional, cell-based; conditions: Homo sapiens; remark: listed apart in the source
[7] = molecular target: T1, Nucleotide-binding oligomerization domain-containing protein 2 (Homo sapiens, UniProt Q9HC29); assay: inhibition of NOD2-driven NF-kB reporter – cell-based, luminescence, uHTS, HEK293 (AID 1566); format: functional
T1 sequence (Q9HC29 whole entry, the tested form may be a part): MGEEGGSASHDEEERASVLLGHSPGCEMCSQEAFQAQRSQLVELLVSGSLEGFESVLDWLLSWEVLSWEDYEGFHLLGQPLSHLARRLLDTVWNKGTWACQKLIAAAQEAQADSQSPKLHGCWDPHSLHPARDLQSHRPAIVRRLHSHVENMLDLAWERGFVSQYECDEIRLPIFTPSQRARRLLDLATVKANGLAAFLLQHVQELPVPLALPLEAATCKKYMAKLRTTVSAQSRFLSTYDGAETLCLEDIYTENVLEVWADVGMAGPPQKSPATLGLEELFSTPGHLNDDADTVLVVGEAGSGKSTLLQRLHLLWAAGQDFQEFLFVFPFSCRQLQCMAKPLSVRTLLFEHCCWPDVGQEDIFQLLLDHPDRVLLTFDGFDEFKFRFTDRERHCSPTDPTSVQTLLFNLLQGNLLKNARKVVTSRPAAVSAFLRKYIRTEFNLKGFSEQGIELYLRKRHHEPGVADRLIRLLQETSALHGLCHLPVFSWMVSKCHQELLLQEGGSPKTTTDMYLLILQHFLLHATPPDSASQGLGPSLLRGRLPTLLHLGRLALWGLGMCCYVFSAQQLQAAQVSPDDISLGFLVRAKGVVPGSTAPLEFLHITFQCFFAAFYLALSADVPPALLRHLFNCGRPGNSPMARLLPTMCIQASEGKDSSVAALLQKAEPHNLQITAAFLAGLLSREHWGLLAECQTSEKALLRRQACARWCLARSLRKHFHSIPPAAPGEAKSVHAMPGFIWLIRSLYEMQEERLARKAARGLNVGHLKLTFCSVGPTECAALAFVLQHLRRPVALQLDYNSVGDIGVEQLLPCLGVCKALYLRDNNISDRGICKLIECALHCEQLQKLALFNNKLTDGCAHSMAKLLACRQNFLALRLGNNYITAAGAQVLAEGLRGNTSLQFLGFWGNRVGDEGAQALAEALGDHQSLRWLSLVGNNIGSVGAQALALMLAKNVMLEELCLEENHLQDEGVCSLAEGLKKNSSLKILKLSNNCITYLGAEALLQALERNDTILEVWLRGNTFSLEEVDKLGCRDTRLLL

HEK293 [8] = assay: NOD2 signaling inhibitors in MDP-stimulated cells, cell-based, uHTS, luminescence (AID 2001); format: functional; conditions: Homo sapiens
[9] = Trypanosoma cruzi growth suppression in host cells – NIH3T3 host cells, beta-gal luminescence, confirmation (AID 2044); format: functional, cell-based;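 note: intracellular parasites grown in NIH/3T3 mouse fibroblasts as host cells; luminescent beta-galactosidase reporter signal from transgenic T. cruzi replicating inside host cells; inhibitors lower the luminescence signal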
HEK293 [10] = assay: cells; format: functional, cell-based; conditions: Homo sapiens; remark: listed apart in the source
[11] = NIH3T3 cell viability loss – ATP luminescence, mouse fibroblasts, counter-screen, dose response (AID 2010); format: functional, cell-based;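 note: cells exposed to compound for about 90 hours before reading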
Tumor necrosis factor = Tumor necrosis factor (Homo sapiens, UniProt P01375); assay: analog potency on TNFa NF-kB signaling – cell-based, revised, SAR follow-up (AID 2337); format: functional
Sequence of Tumor necrosis factor (P01375 whole entry, the tested form may be a part): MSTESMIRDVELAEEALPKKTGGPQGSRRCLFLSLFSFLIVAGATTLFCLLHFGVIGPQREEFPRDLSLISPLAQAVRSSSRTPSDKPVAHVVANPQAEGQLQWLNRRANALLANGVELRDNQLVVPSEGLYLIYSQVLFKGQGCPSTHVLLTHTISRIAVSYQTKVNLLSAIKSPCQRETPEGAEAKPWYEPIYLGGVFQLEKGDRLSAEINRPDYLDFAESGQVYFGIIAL

[12] = molecular target: T2, Nucleotide-binding oligomerization domain-containing protein 1 (Homo sapiens, UniProt Q9Y239); assay: blockers of NOD1 pathway activity – revised, SAR follow-up (AID 2333); format: functional
T2 sequence (Q9Y239 whole entry): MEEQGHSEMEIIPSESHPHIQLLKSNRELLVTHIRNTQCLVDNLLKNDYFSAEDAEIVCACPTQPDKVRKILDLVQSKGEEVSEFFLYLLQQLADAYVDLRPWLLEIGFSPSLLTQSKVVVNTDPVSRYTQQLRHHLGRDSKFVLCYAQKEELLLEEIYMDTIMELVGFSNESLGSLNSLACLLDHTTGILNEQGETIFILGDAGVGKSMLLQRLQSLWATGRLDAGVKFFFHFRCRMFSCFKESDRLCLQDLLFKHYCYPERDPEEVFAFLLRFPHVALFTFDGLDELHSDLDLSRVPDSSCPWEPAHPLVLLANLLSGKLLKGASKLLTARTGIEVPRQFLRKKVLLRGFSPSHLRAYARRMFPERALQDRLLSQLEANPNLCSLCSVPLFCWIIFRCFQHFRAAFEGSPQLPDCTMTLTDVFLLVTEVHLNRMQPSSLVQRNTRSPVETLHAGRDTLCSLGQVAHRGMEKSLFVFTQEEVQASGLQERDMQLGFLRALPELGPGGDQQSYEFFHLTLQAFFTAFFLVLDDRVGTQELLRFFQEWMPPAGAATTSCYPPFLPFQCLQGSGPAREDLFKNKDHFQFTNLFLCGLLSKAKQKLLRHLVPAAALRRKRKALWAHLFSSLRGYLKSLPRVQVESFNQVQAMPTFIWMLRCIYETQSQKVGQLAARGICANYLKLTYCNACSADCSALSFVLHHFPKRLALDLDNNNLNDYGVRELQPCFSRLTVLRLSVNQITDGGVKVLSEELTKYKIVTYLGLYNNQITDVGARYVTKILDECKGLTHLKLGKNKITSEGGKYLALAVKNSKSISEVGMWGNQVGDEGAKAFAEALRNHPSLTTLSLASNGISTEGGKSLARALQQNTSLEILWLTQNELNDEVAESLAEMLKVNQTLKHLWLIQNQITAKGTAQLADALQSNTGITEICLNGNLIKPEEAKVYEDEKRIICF

[13] = molecular target: T1, Nucleotide-binding oligomerization domain-containing protein 2; assay: PubChem AID 2334; format: functional
HEK293 [14] = assay: cells; conditions: Homo sapiens
Bcl-2-like protein 10 = molecular target: T3, Bcl-2-like protein 10 (Homo sapiens, UniProt Q9HD36); assay: Bcl-B/TR3 peptide binding disruption – biochemical, fluorescence polarization, FITC-TR3 peptide, selectivity assay for Bfl-1 inhibitor project, primary screen (AID 748);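 note: fluorescence polarization from a fluorescein-labelled TR3 peptide binding purified Bcl-B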
T3 sequence (Q9HD36 whole entry): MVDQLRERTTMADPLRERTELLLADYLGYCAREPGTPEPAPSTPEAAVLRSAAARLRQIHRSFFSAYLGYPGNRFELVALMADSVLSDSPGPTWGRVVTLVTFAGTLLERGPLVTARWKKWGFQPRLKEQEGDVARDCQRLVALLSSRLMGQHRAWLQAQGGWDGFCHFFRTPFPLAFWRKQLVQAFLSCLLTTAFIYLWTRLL

[15] = molecular target: Beta-2 adrenergic receptor (Homo sapiens, UniProt P07550); assay: ADRB2 activation measured by internalization – cell-based, FAP fluorogen, flow cytometry, cherry pick 1, dose response (AID 588763); format: functional
Sequence of Beta-2 adrenergic receptor (P07550 whole entry): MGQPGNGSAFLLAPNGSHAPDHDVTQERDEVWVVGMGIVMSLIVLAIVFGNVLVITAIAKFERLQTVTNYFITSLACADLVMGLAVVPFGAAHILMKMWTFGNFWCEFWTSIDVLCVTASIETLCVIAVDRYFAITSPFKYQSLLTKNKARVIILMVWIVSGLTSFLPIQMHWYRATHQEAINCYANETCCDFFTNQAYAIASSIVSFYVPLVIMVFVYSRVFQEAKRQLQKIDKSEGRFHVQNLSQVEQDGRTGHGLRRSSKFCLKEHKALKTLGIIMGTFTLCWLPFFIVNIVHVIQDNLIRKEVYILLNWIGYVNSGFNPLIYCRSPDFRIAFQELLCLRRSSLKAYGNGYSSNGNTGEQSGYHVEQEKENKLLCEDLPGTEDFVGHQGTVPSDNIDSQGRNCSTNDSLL

Beta-galactosidase = Beta-galactosidase (Escherichia coli, UniProt Q8VNN2); assay: detection-enzyme interference by beta-gal modulators – biochemical, E. coli enzyme, set 3, artefact control for CCR6 antagonist project, dose response (AID 504712); format: functional
Sequence of Beta-galactosidase (Q8VNN2 whole entry): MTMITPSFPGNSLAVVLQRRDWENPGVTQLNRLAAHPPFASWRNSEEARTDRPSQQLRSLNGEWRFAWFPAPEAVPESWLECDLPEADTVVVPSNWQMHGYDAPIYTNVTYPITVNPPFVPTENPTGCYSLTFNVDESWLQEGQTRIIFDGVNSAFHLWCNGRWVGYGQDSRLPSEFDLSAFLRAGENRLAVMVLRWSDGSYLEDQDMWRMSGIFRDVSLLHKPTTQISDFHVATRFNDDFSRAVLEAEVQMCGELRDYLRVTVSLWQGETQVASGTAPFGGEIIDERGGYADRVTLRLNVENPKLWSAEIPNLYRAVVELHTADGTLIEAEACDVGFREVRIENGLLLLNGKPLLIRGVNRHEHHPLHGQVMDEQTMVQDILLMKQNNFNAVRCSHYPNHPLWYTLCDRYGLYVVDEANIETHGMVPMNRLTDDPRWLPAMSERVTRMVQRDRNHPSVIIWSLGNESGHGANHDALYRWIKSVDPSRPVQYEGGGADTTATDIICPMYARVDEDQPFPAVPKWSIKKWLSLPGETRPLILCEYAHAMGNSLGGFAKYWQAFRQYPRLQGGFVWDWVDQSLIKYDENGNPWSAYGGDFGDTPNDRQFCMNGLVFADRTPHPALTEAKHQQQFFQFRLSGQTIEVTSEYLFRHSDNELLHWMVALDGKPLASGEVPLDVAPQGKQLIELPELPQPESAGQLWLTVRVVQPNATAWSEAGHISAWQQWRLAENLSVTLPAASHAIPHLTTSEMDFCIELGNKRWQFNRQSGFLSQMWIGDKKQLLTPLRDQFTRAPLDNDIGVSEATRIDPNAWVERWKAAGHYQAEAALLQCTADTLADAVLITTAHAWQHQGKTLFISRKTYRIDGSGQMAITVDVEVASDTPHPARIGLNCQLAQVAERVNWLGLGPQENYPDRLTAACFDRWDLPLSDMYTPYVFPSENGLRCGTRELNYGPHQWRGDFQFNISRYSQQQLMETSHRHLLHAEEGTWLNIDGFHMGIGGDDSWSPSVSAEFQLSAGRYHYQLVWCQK

Hexokinase HKDC1 = molecular target: T4, Hexokinase HKDC1 (Homo sapiens, UniProt Q2TB90); assay: inhibition of HKDC1 glucose phosphorylation – biochemical, W721R variant, dose response (AID 504729); format: functional
T4 sequence (Q2TB90 whole entry): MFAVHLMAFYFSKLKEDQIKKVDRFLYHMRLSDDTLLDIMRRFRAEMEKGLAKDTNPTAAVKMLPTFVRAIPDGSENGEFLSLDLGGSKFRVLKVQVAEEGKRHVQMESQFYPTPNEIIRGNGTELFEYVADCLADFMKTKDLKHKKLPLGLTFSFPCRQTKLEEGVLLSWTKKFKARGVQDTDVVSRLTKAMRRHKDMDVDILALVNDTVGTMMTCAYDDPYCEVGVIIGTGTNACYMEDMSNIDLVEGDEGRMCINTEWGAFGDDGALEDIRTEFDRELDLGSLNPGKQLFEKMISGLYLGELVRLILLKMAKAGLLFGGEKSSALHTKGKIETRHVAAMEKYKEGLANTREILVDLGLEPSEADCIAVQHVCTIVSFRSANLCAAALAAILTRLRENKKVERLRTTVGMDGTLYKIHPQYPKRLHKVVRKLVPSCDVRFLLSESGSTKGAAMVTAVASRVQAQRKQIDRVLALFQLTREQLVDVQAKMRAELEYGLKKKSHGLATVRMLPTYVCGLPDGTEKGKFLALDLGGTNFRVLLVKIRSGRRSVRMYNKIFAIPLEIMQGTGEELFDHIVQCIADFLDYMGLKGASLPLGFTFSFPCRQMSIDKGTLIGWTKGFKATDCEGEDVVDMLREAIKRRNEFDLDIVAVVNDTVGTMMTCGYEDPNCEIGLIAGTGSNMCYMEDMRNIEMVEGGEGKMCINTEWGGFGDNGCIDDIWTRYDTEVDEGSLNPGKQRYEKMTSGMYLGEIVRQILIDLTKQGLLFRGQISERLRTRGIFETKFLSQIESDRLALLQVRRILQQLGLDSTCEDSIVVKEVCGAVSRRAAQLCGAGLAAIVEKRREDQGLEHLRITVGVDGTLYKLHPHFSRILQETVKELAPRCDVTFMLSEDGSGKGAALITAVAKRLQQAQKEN

Vero = assay: cells; format: functional, cell-based; conditions: Chlorocebus sabaeus
Bcl-2-related protein A1 = molecular target: T5, Bcl-2-related protein A1 (Mus musculus, UniProt Q07440); format: functional;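 note: confirmatory dose–response counterscreen on Bfl-1, used to check hits from a UBC13 polyubiquitin inhibitor campaign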
T5 sequence (Q07440 whole entry): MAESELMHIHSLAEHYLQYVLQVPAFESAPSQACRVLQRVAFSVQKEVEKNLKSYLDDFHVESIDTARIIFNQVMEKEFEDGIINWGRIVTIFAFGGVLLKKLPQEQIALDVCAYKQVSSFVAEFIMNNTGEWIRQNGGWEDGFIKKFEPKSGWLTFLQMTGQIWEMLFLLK

[16] = molecular target: T6, Ubiquitin-conjugating enzyme E2 N (Homo sapiens, UniProt P61088); format: functional
T6 sequence (P61088 whole entry): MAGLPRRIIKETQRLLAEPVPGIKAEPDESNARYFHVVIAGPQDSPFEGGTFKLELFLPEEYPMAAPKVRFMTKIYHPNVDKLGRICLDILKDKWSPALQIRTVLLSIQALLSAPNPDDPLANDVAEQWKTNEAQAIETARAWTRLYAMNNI

[17] = molecular target: Neurotensin receptor type 1 (Homo sapiens, UniProt P30989); format: functional;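 note: Image-based confirmatory dose-response assay measuring agonist activity at NTR1; NTR1-expressing U2OS osteosarcoma cells imaged for beta-arrestin GFP spot formation; agonist potency where compounds increase beta-arrestin recruitment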
Sequence of Neurotensin receptor type 1 (P30989 whole entry): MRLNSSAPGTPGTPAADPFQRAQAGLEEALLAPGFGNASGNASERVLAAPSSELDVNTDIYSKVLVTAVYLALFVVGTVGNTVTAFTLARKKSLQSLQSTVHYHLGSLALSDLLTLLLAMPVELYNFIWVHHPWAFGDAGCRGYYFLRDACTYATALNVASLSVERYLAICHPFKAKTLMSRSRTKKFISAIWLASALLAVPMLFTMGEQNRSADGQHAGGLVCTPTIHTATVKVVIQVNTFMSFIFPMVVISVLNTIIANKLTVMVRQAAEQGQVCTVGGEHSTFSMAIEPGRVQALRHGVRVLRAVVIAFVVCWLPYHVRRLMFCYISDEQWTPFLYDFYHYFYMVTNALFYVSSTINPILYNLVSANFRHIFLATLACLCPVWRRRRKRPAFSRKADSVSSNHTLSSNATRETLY

[18] = molecular target: T6, Ubiquitin-conjugating enzyme E2 N; format: functional; remark: listed apart in the source
[19] = A549 cell cytotoxicity, dose response, cytotoxicity control, plate reader, cherry-pick, antagonist series (AID 743412); format: functional, cell-based
[20] = toxicity toward HepG2 liver cells – cell-based, plate reader, cherry-pick, antagonist series, cytotoxicity control, dose response (AID 743416); format: functional
[21] = blockers of bursicon-stimulated LGR2 cAMP reporter – cell-based, HEK293, CRE-luciferase reporter, cherry pick, set 2, dose response (AID 743343); format: functional;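 note: transfected cells were stimulated with diluted bursicon conditioned medium after compound addition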
[22] = blockade of melanocortin 4 receptor signaling – cell-based, plate reader, cherry pick, counter-screen for LGR2 antagonist project, dose response (AID 743444); format: functional;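 note: transfected HEK 293 cells stimulated with alpha-MSH peptide; potency of inhibitors of the alpha-MSH evoked signal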
[23] = viability loss in HEK293 cells – cell-based, plate reader, cherry-picked samples, cytotoxicity control, dose response (AID 743446); format: functional
[24] = A cytotoxicity screen of small molecule inhibitors of the PhoP region in Salmonella typhi identified in the primary screen. [Related pubchem assays: 1850, 1864, 1985 ]; format: functional
[25] = molecular target: T7, Short transient receptor potential channel 4 (Mus musculus, UniProt Q9QUQ5); assay: calcium entry via TRPC4 opening agents – cell-based, HEK293 TRPC4/mu-opioid, Fluo-4 calcium, dose response (AID 434937); format: functional
T7 sequence (Q9QUQ5 whole entry): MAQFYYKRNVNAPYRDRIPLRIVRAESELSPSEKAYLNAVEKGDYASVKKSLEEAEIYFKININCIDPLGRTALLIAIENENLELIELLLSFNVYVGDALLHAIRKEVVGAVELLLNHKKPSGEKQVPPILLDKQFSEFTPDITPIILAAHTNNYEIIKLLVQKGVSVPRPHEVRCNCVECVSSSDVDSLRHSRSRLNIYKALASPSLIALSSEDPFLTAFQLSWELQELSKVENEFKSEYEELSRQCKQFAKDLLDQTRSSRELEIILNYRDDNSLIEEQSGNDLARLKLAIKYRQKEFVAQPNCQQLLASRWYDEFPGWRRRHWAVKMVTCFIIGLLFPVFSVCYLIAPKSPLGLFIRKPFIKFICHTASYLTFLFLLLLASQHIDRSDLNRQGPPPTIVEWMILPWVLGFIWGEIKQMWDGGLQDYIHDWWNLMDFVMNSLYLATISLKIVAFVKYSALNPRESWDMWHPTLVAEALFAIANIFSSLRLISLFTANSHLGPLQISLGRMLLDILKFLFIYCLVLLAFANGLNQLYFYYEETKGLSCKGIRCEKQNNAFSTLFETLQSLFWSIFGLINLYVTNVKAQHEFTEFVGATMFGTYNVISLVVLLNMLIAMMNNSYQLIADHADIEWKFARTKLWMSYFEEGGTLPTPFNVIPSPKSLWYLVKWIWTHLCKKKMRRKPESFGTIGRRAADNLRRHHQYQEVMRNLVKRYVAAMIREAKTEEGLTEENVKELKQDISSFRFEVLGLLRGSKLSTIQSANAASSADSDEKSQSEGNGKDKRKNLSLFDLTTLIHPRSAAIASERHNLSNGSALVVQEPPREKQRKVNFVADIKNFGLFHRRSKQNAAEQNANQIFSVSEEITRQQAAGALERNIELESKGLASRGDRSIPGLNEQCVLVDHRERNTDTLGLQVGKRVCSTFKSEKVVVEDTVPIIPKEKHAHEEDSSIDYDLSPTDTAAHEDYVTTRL

Structure (SMILES)	EC50 (HEK293 [2])	IC50 (HEK293 [3])	IC50 (HEK293 [6])	EC50 [7]	IC50 (HEK293 [8])	EC50 [9]	IC50 (HEK293 [10])	EC50 [11]	IC50 (Tumor necrosis factor)	IC50 [12]	IC50 [13]	IC50 (HEK293 [14])	also measured
CCCCCn1c(=O)c(C(=O)Nc2ccccc2S(N)(=O)=O)c(O)c2ccccc21	6.17 µM (active)	> 20 µM (inactive)	> 20 µM (inactive)	5.7 µM (active)	8.2 µM (active)	2.07 µM (active)	> 20 µM (inactive)	> 30 µM (not active)	3.44 µM (active)	5.88 µM (active)	6.92 µM (active)	> 20 µM (inactive)	EC50 [1]: > 120 µM (not active); EC50 [4]: > 120 µM (not active); EC50 [5]: 9.08 µM (active)
O=C(CCCCCn1c(=S)[nH]c2ccccc2c1=O)NCc1ccc2c(c1)OCO2													IC50 (Bcl-2-like protein 10): > 100 µM (inactive); EC50 [15]: 0.0077 µM (active)
COC(=O)c1ccc(CCc2cc(O)c(Br)cc2O)cc1													IC50 (Beta-galactosidase): > 66.6 µM (inactive); IC50 (Hexokinase HKDC1): 6.54 µM (active)
Cc1ccc2c(c1)CCCN2S(=O)(=O)c1cccc(C(=O)Nc2ccccc2C(=O)O)c1	9.32 µM (active)	> 20 µM (inactive)	> 20 µM (inactive)	4.45 µM (active)	15.9 µM (inactive)	4.95 µM (active)	> 20 µM (inactive)	4.22 µM (active)	7.52 µM (active)	9.05 µM (active)	12.6 µM (active)	> 20 µM (inactive)	IC50 (Vero): > 25 µM (active)
CCOC(=O)/C(=C\c1cccc(O)c1)c1nc(O)c2c(C)c(C)sc2n1													IC50 (Bcl-2-related protein A1): > 20 µM (inactive); IC50 [16]: 16.4 µM (active); EC50 [17]: 6.59 µM (active); IC50 [18]: > 20 µM (inactive); AC50 [19]: 20.3 µM (active); AC50 [20]: 13.5 µM (active); AC50 [21]: 12.9 µM (active); AC50 [22]: 24.5 µM (active); AC50 [23]: 22.8 µM (active)
CN(CCOc1ccc(Cl)cc1)CC(O)c1ccccc1 (stereo not drawn)													EC50 [24]: > 50 µM (active); EC50 [25]: 1.88 µM (active)

Reference: ChEMBL document CHEMBL1201862, “PubChem BioAssay data set” (2004)
